Read-outs that look alike come from different tables or passages of the source.
Experiments:
[1] = tested on: Salmonella typhimurium ATCC 14028 attached to human buccal epithelial cells; assay: microbe, parasite or virus in culture; assay type: cell-based; conditions: Table A-3
Procedure: Additional studies on the detachment of Salmonella typhimurium from human buccal epithelial cells were conducted.
S. typhimurium ATCC 14028 was grown in nutrient broth (BBL Microbiology system, Cockeysville, Md.) for 16 hours at 37° C. The cells were centrifuged and washed twice with 0.008 M phosphate buffered saline (PBS, at pH 7.2) at 4500 rpm for 10 minutes. The last suspension was diluted in PBS to obtain a cell concentration 0.5 to 1×10^9 cells/ml using spectrophotometric measurement. Human epithelial cells were obtained by swabbing the buccal surface of a healthy, nonsmoking donor. […] The number of living cells was estimated and the suspension was diluted to 0.5 to 1×10^5 cells/ml.
The suspension of the human buccal cells was mixed with an equal volume of the bacterial suspension (3.0 ml), or PBS (0.8 ml) in 10 ml Erlenmeyer flasks. Contact was allowed for 1.5 hours at 35° C. under agitation. After incubation, 1.0 ml of each suspension was transferred into an Eppendorff vial, centrifuged at 3000 rpm for 10 minutes, and washed with PBS. The cells were treated with 1.0 ml PBS or 1.0 ml of the test chemical solution. Treatment was performed by suspending, gently vortexing, and centrifuging at 1500 rpm for 10 minutes. After the treatment, the cells were washed and placed on microscopic slides for examination.
EC50 represents the inverse measurement of the potency of a compound. EC50 values were determined by a nonlinear regression of the detachment effect versus the cationic surfactant concentration data from Table A-3.

[2] = tested on: Salmonella typhimurium on chicken skin; assay: Effect of surfactants on Salmonella attached to chicken skin, drumsticks (Tables F1-F4)
[3] = tested on: Salmonella typhimurium on chicken skin; assay: Prevention of attachment of Salmonella on excised chicken skin (Table F5)
Procedure: To determine the ability of surfactants to inhibit attachment or produce detachment of Salmonella, the following experiment was conducted. A hole was bored into the bottom of a 150 ml specimen cup. Chicken skin was excised from a drum stick and then placed over the cap of the specimen cup, and then the cap was screwed on. S. typhimurium was diluted 1:5000 with PBS or a surfactant. The surfactants were diluted appropriately. The skin was then inoculated with the solution containing the S. typhimurium and the surfactant for 30 minutes at room temperature.
Following incubation, the skin was washed. The rinse water was diluted appropriately in PBS and then plated onto XLD pour plates. The S. typhimurium was counted and reported as CFU/ml. The skin was swabbed so as to remove any remaining S. typhimurium using a nitroellulose lift and the CFU's/ml on the lift were also counted.

[4] = tested on: Salmonella typhimurium TA98; assay: Salmonella reversion assay after heating at 205° C., TA98; assay type: cell-based; conditions: for Revertants/plate: heated at 205° C.
Procedure: Test strains TA98 and TA100 were used. Again, mutagenicities were determined both in the absence and in the presence of the mammalian liver S9 activating system.
A response that was two times that of the solvent control was considered a positive response.

adherent S. typhimurium = conditions: 10 minutes

CCCCCCCCCCCCCCCC[n+]1ccccc1 [CPC, cetylpyridinium chloride]
adherence, mean value of attached bacteria ([1]; 2.5 ug/ml): 73 ± 55
adherence, mean value of attached bacteria ([1]; 5 ug/ml): 42 ± 22
adherence, mean value of attached bacteria ([1]; 10 ug/ml): 28 ± 10
Enrichment, chicken legs out of ten ([2]; 0.1%, 4° C.): 8/10
Rinse H2O ([2]; 0.1%, 4° C.): 0 CFU/ml
Surfactant Solution ([2]; 0.1%, 4° C.): 0 CFU/ml
Swabs, chicken legs producing the notated number of colonies ([2]; 0.1%, 4° C.): 8/10
Swabs, colonies ([2]; 0.1%, 4° C.): + (1-10)
Wash H2O, chicken legs producing the notated number of colonies ([2]; 0.1%, 4° C.): 8/10
Wash H2O, colonies ([2]; 0.1%, 4° C.): + (1-10)
Enrichment, chicken legs out of ten ([2]; 0.1%, 25° C.): 0/10
Rinse H2O ([2]; 0.1%, 25° C.): 0 CFU/ml
Surfactant Solution ([2]; 0.1%, 25° C.): 0 CFU/ml
Swabs, chicken legs producing the notated number of colonies ([2]; 0.1%, 25° C.): 7/10
Swabs, colonies ([2]; 0.1%, 25° C.): + (1-10)
Wash H2O, chicken legs producing the notated number of colonies ([2]; 0.1%, 25° C.): 8/10
Wash H2O, colonies ([2]; 0.1%, 25° C.): ++ (11-100)
Enrichment, chicken legs out of ten ([2]; 0.5%, 4° C.): 9/10
Rinse H2O ([2]; 0.5%, 4° C.): 0 CFU/ml
Surfactant Solution ([2]; 0.5%, 4° C.): 0 CFU/ml
Swabs, chicken legs producing the notated number of colonies ([2]; 0.5%, 4° C.): 9/10
Swabs, colonies ([2]; 0.5%, 4° C.): + (1-10)
Wash H2O, chicken legs producing the notated number of colonies ([2]; 0.5%, 4° C.): 7/10
Wash H2O, colonies ([2]; 0.5%, 4° C.): + (1-10)
Enrichment, chicken legs out of ten ([2]; 1.0%, 4° C.): 5/10
Rinse H2O ([2]; 1.0%, 4° C.): 0 CFU/ml
Surfactant Solution ([2]; 1.0%, 4° C.): 0 CFU/ml
Swabs, chicken legs producing the notated number of colonies ([2]; 1.0%, 4° C.): 5/10
Swabs, colonies ([2]; 1.0%, 4° C.): + (1-10)
Wash H2O, chicken legs producing the notated number of colonies ([2]; 1.0%, 4° C.): 9/10
Wash H2O, colonies ([2]; 1.0%, 4° C.): + (1-10)
Enrichment, chicken legs out of ten ([2]; .01%, 25° C.): 10/10
Rinse H2O ([2]; .01%, 25° C.): + (1-10)
Surfactant Solution ([2]; .01%, 25° C.): 0 CFU/ml
Swabs, chicken legs producing the notated number of colonies ([2]; .01%, 25° C.): 9/10
Swabs, colonies ([2]; .01%, 25° C.): ++ (11-100)
Wash H2O, chicken legs producing the notated number of colonies ([2]; .01%, 25° C.): 10/10
Wash H2O, colonies ([2]; .01%, 25° C.): +++ (101-300)
Enrichment, chicken legs out of ten ([2]; .05%, 25° C.): 7/10
Rinse H2O ([2]; .05%, 25° C.): 0 CFU/ml
Surfactant Solution ([2]; .05%, 25° C.): 0 CFU/ml
Swabs, chicken legs producing the notated number of colonies ([2]; .05%, 25° C.): 9/10
Swabs, colonies ([2]; .05%, 25° C.): + (1-10)
Wash H2O, chicken legs producing the notated number of colonies ([2]; .05%, 25° C.): 10/10
Wash H2O, colonies ([2]; .05%, 25° C.): ++ (11-100)
CFU/ml on XLD agar [3]: 20
Nitrocellulose lift (# of colonies) ([3]; skin, 30 minutes at room temperature): 4 # of colonies
Revertants/plate ([4]; TA98, +S9, 0.1 μg/plate): 26 ± 4 Revertants/plate
Revertants/plate ([4]; TA98, +S9, 1.0 μg/plate): 20 ± 1 Revertants/plate
Revertants/plate ([4]; TA98, +S9, 5.0 μg/plate): 25 ± 4 Revertants/plate
Revertants/plate ([4]; TA98, +S9, 10.0 μg/plate): 22 ± 3 Revertants/plate
Revertants/plate ([4]; TA98, -S9, 0.1 μg/plate): 16 ± 3 Revertants/plate
Revertants/plate ([4]; TA98, -S9, 1.0 μg/plate): 20 ± 5 Revertants/plate
Revertants/plate ([4]; TA98, -S9, 5.0 μg/plate): 22 ± 3 Revertants/plate
Revertants/plate ([4]; TA98, -S9, 10.0 μg/plate): 25 ± 3 Revertants/plate
mutagenicity after heating in vegetable oil (in words) ([4]; TA98, absence or presence of S9, all concentrations tested): did not produce substances which are mutagenic
Colony Count (±SD) (adherent S. typhimurium; 5 μg/ml): 2.52 ± 2.69 × 10^3
Colony Count (±SD) (adherent S. typhimurium; 10 μg/ml): 4.40 ± 5.68 × 10^2
Colony Count (±SD) (adherent S. typhimurium; 50 μg/ml): 2.0 ± 4.5 × 10^1

From patent US5366983A, “Use of quaternary ammonium compounds to remove salmonella contamination from meat products” (The Board of Trustees of The University of Arkansas, priority 1992, dated 1994)
